Measurements: US11364305B2, “Nanoparticle conjugates and uses thereof” (UNIVERSITY OF MIAMI, priority 2015, dated 2022)
[ ]: non-standard residue; d: D form. Abu = CC[C@H](N)C(=O)O; Ahx = NCCCCCC(=O)O

Tests used:
human MDSCs = assay: Binding of 4PD/Alexa555-shRNA complexes to PBMCs from HNSCC patients by FACS; type: cell-based; details: 30 minutes at 4° C.
Method: Transfection was evaluated by FACS. In FIG. 6A, the red dot represent the cells transfected with the 4PD nanoparticles (i.e., CD33+IL4Rα+CD11b+CD14+HLADRlow monocytes/MDSC). FIG. 6B depicts the Alexa555 fluorescence in the indicated gates. In FIG. 6C, apparent Kd was calculated by incubating a fixed number of PBMCs with the indicated concentration of Alexa555shRNA/4PD complexes for 10 minutes at 4° C. and by evaluating the MFI in the relevant channel by FACS.
Next, the ability of 4PD to bind to the native IL4Rα receptor expressed on a cell membrane was evaluated. To this aim, the capacity of 4PD to recognize CD11b+myeloid cells isolated from tumor bearing mice was evaluated. Briefly, CD11b+MDSC were magnetically isolated from the spleen of Balb/c mice challenged 2 weeks before with the CT26 colon carcinoma. Purified cells were incubated at 37° C. for 15 minutes with Alexa555-shRNA loaded onto 4PD or dendrimers conjugated with scramble peptide as negative control. […] Cells were harvested and analyzed by FACS (FIG. 5B) or by fluorescence microscopy (FIG. 5C) to determine Alexa-555-shRNA transfection. […] Similarly (FIG. 6B), Alexa555 fluorescence can be found only on CD33+IL4Rα+ MDSCs (black histogram) but not in other subsets as the IL4Rα-CD33+ myeloid cells (purple) or the non-myeloid (CD33-IL4Rα−) cells. […]

CD11b+MDSC = assay: Alexa555-shRNA transfection of CD11b+ MDSC from CT26 tumor bearing mice (FACS, fluorescence microscopy); type: cell-based, mouse; details: 15 minutes at 37° C., then 2 hours; FACS and fluorescence microscopy
Method: MDSC isolated from CT26 tumor bearing mice were transfected with: 1) Alexa555-siRNA alone (gray filled line in FIGS. 5A and 5B), 2) Alexa555-siRNA Dendrimer (black line, bottom panel, FIG. 5B) or 3) Alexa555-siRNA IL4Rα targeting dendrimer (black line, top panel, FIG. 5A). 45 minutes later cells were analyzed by immune-fluorescence microscopy (FIG. 5C) and by FACS (FIG. 5B) after gating on the alive (DAPI negative) cells.
Next, the ability of 4PD to bind to the native IL4Rα receptor expressed on a cell membrane was evaluated. To this aim, the capacity of 4PD to recognize CD11b+myeloid cells isolated from tumor bearing mice was evaluated. Briefly, CD11b+MDSC were magnetically isolated from the spleen of Balb/c mice challenged 2 weeks before with the CT26 colon carcinoma. Purified cells were incubated at 37° C. for 15 minutes with Alexa555-shRNA loaded onto 4PD or dendrimers conjugated with scramble peptide as negative control. After the incubation, cells were washed and incubated for an additional 2 hours at 37° C. in CTL media. Cells were harvested and analyzed by FACS (FIG. 5B) or by fluorescence microscopy (FIG. 5C) to determine Alexa-555-shRNA transfection. […] Similarly (FIG. 6B), Alexa555 fluorescence can be found only on CD33+IL4Rα+ MDSCs (black histogram) but not in other subsets as the IL4Rα-CD33+ myeloid cells (purple) or the non-myeloid (CD33-IL4Rα−) cells.

MDSC and macrophages = assay: In vivo specificity of 4PD in CT26 bearing mice (multicolor flow cytometry of tumor, spleen, liver); design: species or system mouse; details: for Alexa555-shRNA accumulation in cell subsets: with cardiolipin
Method: Mice bearing the CT26 colon carcinoma (0.7 cm in diameter) were injected with Alexa555-siRNA loaded onto 4PD (black bar) or, as control, onto G5 PAMAM dendrimer functionalized with a random peptide. Two hours later, mice were sacrificed. Single cell suspensions from the spleen, the tumor and the liver were labeled with antibodies specific for Gr1, CD11b, F4/80, CD11c, CD3, CD4, and CD8 to identify granulocytic MDSC (gMDSC), monocytic MDSC (mMDSC), macrophages, dendritic cells, and helper and cytotoxic T cell. Fluorescence in the Alexa555 channel in each population was evaluated by FACSas a read out of 4PD mediated transfection.
In order to evaluate 4PD specificity in vivo, Balb/c mice bearing the CT26 colon carcinoma were injected intravenously with 20 ug of Alexa555-shRNA loaded into the 4PD platform with cardiolipin. Alexa 555-shRNA loaded dendrimer coupled with control peptide (a mixture of random peptides) were used as control. Cardiolipin was added to the complexes as described above (FIG. 3). Two hours after 4PD/Alexa555-shRNA systemic injection, mice were sacrificed and single cell suspension from the tumor, the spleen, and the liver was analyzed by multicolor flow cytometry (FIG. 10). In particular, cells were stained with CD11b, Gr1, CD11c and F4/80 specific antibodies to identify granulocytic− (g−) MDSCs (CD11bGr1high), monocytic− (m−) MDSCs (CD11b+GR1−), CD11b+Gr-1 negative myeloid cells, F4/80+macrophages, and CD11chigh DC. Additionally, cells were stained with antibodies specific for CD3, CD8, and CD4 to recognize T cell subsets.

[1] = test system: Bone marrow cells from C57Bl/6 mice; assay: Transfection of early hematopoietic progenitor cells from bone marrow (flow cytometry); type: cell-based, mouse
Method: FIG. 24B provides histograms that how the binding of 4PD (open histogram) over the control (filled histogram). The dot blot on the right summarize the binding from ten independent assays.
Bone marrow cells from C57Bl/6 mice were incubated for 10 minutes with 4PD loaded with Alexafluor 555 washed, counterstained with anti-lineage cocktail, anti-CD45, anti-Sca1, anti ckit, anti-CD34, anti-CD16/CD32, anti-CD150 and anti-CD48 antibodies, and analyzed by flow cytometry.
Importantly, the viability of the cells after transfection was higher than 95%.

4PD: G5 PAMAM dendrimer conjugated by maleidoamide chemistry to the IL4Rα targeting peptide of SEQ ID NO: 1 (Ac-LQRLFRAFR[Abu]LD[Ahx]C-NH2; also: Cys14 joined by maleimidobenzoyl thioether to G5 PAMAM dendrimer)
cells bound by 4PD among PBMCs (human MDSCs): binds preferentially to CD11b+CD14+CD33+IL4Rα+HLADRdim cells
Alexa-555-shRNA transfection (CD11b+MDSC): can promote the internalization of Alexa-555 in the cells
Alexa555-shRNA binding (MDSC and macrophages; non-myeloid leukocytes subsets, 2 hours after i.v. injection): Only non-specific level of binding was observed
Alexa555-shRNA accumulation in cell subsets (MDSC and macrophages; spleen and liver, 2 hours after i.v. injection): accumulates mostly in F4/80+ tumor educated macrophages, and CD11b+GR1− myeloid cells
Alexa555-shRNA accumulation in cell subsets (MDSC and macrophages; tumor, 2 hours after i.v. injection of 20 ug Alexa555-shRNA): accumulates mostly in the tumor associated gMDSCs, mMDSC, macrophages and CD11b+Gr1− myeloid cells
transfection ([1]; HSC, HPC1, HPC2, MPP, CMP, GMP, 10 minutes incubation): able to efficiently transfect
viability of the cells after transfection ([1]; bone marrow cells): higher than 95%
transfection ([1]; megakariocytes-erythrocyte precursors): at lower level
